Results: patent US20030022253A1, “Method for identifying, isolating and producing neuroactive binding agents and binding agents derived thereby” (Nyxis Neurotherapies, Inc., priority 2001, published 2003)
Like-named read-outs stand apart in the source and are kept apart here.

What was measured:
[1] = test system: learning; details: rats, IV doses up to 2 mg/kg; cited from earlier work
[2] = biological target: T1, NMDA receptor complex (Rattus norvegicus, UniProt P35439); test: Modified glycine site-dependent [3H]MK-801 binding assay with 7-chlorokynurenic acid; details: at 10^−6 M
T1 construct: Crude synaptic membranes were prepared using rat hippocampal tissue (male Sprague-Dawley rats); from tissue; host or cells: rat hippocampal crude synaptic membranes (male Sprague-Dawley)

[3] = test system: learning; details: rats, IV doses up to 2 mg/kg; cited from earlier work; remark: listed apart in the source
[4] = biological target: T2, NMDA receptor-ion channel complex; test: [3H]TCP binding assay on washed hippocampal membranes; parameters: species or system rat; details: antagonist alone, no glutamate or glycine added; read-out: IC50, inhibition of [3H]TCP binding
T2 construct: other: antagonist alone, no glutamate or glycine added; other: combined addition, 50 μM of each
Experimental: (§1) Tissue Preparation. Crude synaptic membranes were prepared from rat Hippocampi or from rat forebrains (male Sprague-Dawley rats) and washed extensively to remove endogenous amino acids, as previously described by Ransom and Stec ((1988) Brain Res. 444, 25-32). […] Membranes were then pelleted by centrifugation at 48,000 g for 20 min. This step was repeated twice and the homogenate was stored at −70′ in the same buffer. Before each use, homogenates were thawed at room temperature, pelleted, and washed four additional times. […] The final washed membranes were resuspended at concentrations of 2-3 mg/ml in either 5 mM Tris-HCl buffer or 5 mM Tris-acetate buffer.
(§2) TCP binding assay. Measurements of specific [^3H]TCP binding were performed as described previously (Haring R., Kloog Y., Harshak-Felixbrodt N., and Sokolovsky M. (1987) Biochem. Biophys. Res. Commun. 142, 501-510). Final reaction of mixtures consisted of 50-100 μg of membrane protein in 200 μl of 5 mM Tris-HCl buffer and contained either [^3H]TCP, or [^3H]TCP and the appropriate concentration of NMDA-receptor ligands or MAbs. Reactions were initiated by the addition of the membranes to the reaction mixtures. Unless otherwise indicated, binding assays were performed under nonequilibrium conditions at 25° C. for 1 hr. Nonspecific binding was determined in parallel samples containing 100 μM unlabeled PCP. Binding reactions were terminated by filtration on Whatman GF/B glass filters that had been pretreated with 0.1% polyethyleneimine for 1 hr. The dissociation of [^3H]TCP from its membrane-binding site was measured after equilibrating the receptors with 20 nM [^3H]TCP for 120 min. The dissociation reaction was initiated by the addition of 100 μM unlabeled PCP in the presence and absence of NMDA-receptor ligands or MAb. Reactions were terminated immediately (zero time) and after incubation for the additional periods of time indicated.

[5] = biological target: T3, NMDA receptor-ion channel complex (Rattus norvegicus, UniProt P35439); test: as above
T3 construct: other: in the presence of 25 μM of B6B21; other: agonist alone
T3 sequence (Q00959 23-1464, other chains not shown): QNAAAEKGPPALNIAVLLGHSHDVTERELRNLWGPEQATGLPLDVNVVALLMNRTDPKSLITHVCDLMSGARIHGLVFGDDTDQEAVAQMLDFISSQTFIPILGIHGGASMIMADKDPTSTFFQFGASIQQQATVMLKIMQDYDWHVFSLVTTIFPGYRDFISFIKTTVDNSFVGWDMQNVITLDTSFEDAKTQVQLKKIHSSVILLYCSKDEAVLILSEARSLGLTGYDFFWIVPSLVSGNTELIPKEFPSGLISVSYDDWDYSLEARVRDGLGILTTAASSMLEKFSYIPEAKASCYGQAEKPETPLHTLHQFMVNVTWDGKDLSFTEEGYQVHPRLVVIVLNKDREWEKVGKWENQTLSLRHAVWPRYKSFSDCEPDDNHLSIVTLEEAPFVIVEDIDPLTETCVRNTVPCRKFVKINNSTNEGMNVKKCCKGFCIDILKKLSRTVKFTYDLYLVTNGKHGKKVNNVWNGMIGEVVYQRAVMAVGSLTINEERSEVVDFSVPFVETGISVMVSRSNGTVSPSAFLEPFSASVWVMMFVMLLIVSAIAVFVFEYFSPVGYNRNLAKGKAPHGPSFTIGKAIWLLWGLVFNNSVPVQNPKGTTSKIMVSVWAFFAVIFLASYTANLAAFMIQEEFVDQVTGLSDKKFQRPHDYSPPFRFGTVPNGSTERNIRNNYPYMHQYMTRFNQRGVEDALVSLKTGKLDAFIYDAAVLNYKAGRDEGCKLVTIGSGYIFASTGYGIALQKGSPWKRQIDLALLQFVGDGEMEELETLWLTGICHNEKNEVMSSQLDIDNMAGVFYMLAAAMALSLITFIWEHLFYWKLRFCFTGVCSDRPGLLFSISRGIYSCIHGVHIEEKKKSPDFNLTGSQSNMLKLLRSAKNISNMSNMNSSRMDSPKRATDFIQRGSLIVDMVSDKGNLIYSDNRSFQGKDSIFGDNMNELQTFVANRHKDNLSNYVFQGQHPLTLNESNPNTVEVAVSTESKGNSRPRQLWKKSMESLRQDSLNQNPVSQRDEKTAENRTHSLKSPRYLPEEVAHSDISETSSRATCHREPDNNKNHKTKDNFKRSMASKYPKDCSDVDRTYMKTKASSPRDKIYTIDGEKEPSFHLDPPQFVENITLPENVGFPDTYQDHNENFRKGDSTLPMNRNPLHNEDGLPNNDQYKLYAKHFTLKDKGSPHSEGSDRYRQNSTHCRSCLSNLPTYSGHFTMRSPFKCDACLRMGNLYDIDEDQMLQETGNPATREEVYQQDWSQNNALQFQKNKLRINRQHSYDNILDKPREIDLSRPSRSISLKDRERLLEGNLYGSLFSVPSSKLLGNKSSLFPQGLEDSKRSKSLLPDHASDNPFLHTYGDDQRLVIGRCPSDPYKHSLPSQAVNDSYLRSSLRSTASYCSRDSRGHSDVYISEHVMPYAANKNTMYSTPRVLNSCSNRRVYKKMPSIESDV
T3 sequence (Q00960 27-1482, other chains not shown, further chain): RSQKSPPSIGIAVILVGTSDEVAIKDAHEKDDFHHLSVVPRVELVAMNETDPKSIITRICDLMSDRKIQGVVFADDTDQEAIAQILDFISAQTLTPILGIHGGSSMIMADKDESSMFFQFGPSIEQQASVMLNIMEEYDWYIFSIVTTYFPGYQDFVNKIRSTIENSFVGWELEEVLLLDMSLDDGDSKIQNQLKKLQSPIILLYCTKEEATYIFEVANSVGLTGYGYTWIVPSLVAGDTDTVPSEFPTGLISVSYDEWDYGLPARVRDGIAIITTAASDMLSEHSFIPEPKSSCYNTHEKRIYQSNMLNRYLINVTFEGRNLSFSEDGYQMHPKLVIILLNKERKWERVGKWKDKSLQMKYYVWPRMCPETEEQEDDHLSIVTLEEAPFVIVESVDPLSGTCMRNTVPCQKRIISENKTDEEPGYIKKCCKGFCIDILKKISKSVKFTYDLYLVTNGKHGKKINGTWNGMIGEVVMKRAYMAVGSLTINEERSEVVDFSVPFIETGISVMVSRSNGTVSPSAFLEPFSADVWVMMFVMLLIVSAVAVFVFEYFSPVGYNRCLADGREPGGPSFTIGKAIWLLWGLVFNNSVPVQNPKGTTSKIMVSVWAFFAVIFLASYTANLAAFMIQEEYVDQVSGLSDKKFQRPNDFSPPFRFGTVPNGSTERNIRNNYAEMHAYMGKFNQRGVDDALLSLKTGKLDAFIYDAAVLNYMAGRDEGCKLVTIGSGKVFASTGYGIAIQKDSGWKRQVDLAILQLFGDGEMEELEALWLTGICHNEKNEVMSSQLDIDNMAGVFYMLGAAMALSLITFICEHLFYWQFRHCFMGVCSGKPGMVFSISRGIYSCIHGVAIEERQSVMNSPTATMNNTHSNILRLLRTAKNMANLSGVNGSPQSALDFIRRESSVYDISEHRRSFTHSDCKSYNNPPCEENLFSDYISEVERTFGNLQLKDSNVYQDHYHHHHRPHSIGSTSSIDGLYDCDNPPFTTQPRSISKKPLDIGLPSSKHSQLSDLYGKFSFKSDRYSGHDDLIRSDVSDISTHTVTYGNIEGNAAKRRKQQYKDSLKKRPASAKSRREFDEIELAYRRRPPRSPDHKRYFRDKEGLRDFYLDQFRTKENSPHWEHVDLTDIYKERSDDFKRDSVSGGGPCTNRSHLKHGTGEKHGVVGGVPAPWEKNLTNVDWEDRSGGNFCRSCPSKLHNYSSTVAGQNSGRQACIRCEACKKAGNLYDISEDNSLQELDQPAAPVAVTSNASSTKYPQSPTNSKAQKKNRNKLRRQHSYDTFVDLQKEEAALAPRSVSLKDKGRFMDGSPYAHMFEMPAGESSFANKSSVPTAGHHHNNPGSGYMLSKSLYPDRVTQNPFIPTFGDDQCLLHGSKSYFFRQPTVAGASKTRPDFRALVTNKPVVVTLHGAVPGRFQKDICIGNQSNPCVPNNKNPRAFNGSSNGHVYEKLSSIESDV
Experimental: as §1, §2

[6] = biological target: NMDA receptor-ion channel complex; test: as above; parameters: species or system rat
Experimental: as §1, §2

[7] = biological target: T4, glycine-binding site of the NMDA-receptor complex (Rattus norvegicus, UniProt P35439); test: [3H]glycine binding assay; details: Scatchard analysis, no antibody
T4 construct: Crude synaptic membranes were prepared from rat Hippocampi or from rat forebrains (male Sprague-Dawley rats); from tissue; host or cells: rat hippocampal or forebrain crude synaptic membranes (male Sprague-Dawley), Triton X-100 treated
Experimental: as §1

## threonine-proline-proline-threonine [NT-13]
[1]
  learning in the Morris Water Maze: statistically significant increase in learning
[2]
  [3H]MK-801 binding, % of control: 130%
[3]
  learning in the trace eyeblink paradigm: statistically significant increase in learning

## N[C@H](CCCP(=O)(O)O)C(=O)O [D-AP5, D-(−)-2-amino-5-phosphonovaleric acid]
[4]
  IC50: 1.4 µM
[5]; read-out: IC50, inhibition of [3H]TCP binding, in the presence of 50 μM glutamate
  IC50: > 100 µM

## N[C@@H](CCC(=O)O)C(=O)O [glutamate]
[5]
  concentration giving maximal stimulation of specific [3H]TCP binding: > 10 µM
[5]; maximally stimulating concentration, non-equilibrium 1 h, 25° C., control 63
  specific [3H]TCP binding: 132 fmol/mg of protein

## O=C(O)c1cc(O)c2ccc(Cl)cc2n1 [7-Cl KYNA, 7-chlorokynurenic acid]
[4]
  IC50: 6 µM
[6]; in the presence of B6B21 (40 μg/ml), read-out: IC50, inhibition of [3H]TCP binding
  IC50: 60 µM

## NCC(=O)O [glycine]
[7]
  Bmax of [3H]glycine binding: 12.9 pmol/mg of protein
[6]; 50 μM glycine or 40 μg/ml B6B21
  ability to abolish the inhibitory effect of D-AP5 on [3H]TCP binding: Neither glycine nor B6B21 could abolish
[6]; added to maximally stimulating glutamate
  specific [3H]TCP binding: 310 fmol/mg of protein
[6]; co-addition at concentrations giving maximal effects
  potentiation of the glutamate effect on [3H]TCP binding: potentiated the glutamate effect additively
[6]; in the absence of added glutamate, glycine 50 μM, B6B21 25 μM
  specific [3H]TCP binding: 155 fmol/mg of protein
